# Data as given in patent US9708267B2, “Activators of human pyruvate kinase” (The United States of America, as represented by the …, priority 2010, dated 2017).
# Like-named read-outs stand apart in the source and are kept apart here.
# Target: hPK, M2 (Homo sapiens, UniProt P14618)
# Assay: luminescent pyruvate kinase-luciferase coupled assay (qHTS)
# Type: biochemical
# Conditions: for activation at 57 µM: % activation at 57 μM of compound, read-out: hPK, M2 Max. Res.; for Emax: read-out: Max. Res.
# Description: AC50 values were determined utilizing the luminescent pyruvate kinase-luciferase coupled assay (Inglese, J. et al, Quantitative high-throughput screening: a titration-based approach that efficiently identifies biological activities in large chemical libraries. Proc. Natl. Acad. Sci. U.S.A. 2006, 103, 11473-11478).
# Luminescent Pyruvate Kinase-Luciferase Coupled Assay.
# Production of a luminescent signal based on the generation of ATP by pyruvate kinase was determined by using the ATP-dependent enzyme firefly luciferase. Three μL of substrate mix (at r.t.) in assay buffer (50 mM imidazole pH 7.2, 50 mM KCl, 7 mM MgCl2, 0.01% tween 20, 0.05% BSA) was dispensed into Kalypsys (San Diego, Calif., USA) white solid bottom 1,536 well microtiter plates using a bottle-valve solenoid-based dispenser (Kalypsys). The final concentrations of substrates in the assay were 0.1 mM ADP and 0.5 mM PEP. Twenty-three nL of compound in DMSO were delivered with a 1,536-pin array tool, and 1 μL of enzyme mix in assay buffer (final concentration, 0.1 nM pyruvate kinase, 50 mM imidazole pH 7.2, 0.05% BSA, 4° C.) was added. Microtiter plates were incubated at r.t. for 1 hour and 2 uL of luciferase detection mix (Kinase-Glo from Promega, Madison, Wis., USA) at 4° C. protected from light, was added and luminescence was read with a ViewLux (Perkin Elmer, Waltham, Mass., USA) using a 2 second exposure/plate (with 2× binning). The final concentration of DMSO was 0.5% and found not to affect the assay signal.
# Data was normalized for AC50 values to control columns containing uninhibited enzyme (n), and AC100 inhibition (i) according the following equation: Activation (%)=[(c−n)/(n−i)]*100 where c=compound, n=DMSO neutral, i=no enzyme control. A % activity of 100% is approximately a 2-fold increase over basal assay signal (% Activation by FBP was variable but averaged 100%). Monitoring of activation was accomplished using enzyme at 3× the final concentration.
# All compounds were screened using a qHTS approach, where compounds are assayed using at least seven concentrations to generate concentration-response curves for every compounds. Briefly, qHTS uses an inter-plate dilution method where the first plate contains the highest concentration of a set of compounds in DMSO, while subsequent plates contain the same compounds in the same well locations, but at successive lower concentrations. Using the protocol outlined above, the rate was calculated as a plate throughput of 18 plates/hr or approximately 7 samples/sec on the Kalypsys robotic system which means that a 7 point CRC was obtained every second on the robotic system.
# [1] = Table 3, 0.1 mM ADP, 0.5 mM PEP, mean of three replicate experiments, read-out: hPK, M2 AC50
# [2] = Table 3, mean of three replicate experiments
# [3] = Table 4, maximum response (activation)
# [4] = linkage variants of compound 4, read-out: AC50
# [5] = Table 4, 0.1 mM ADP, 0.5 mM PEP, read-out: AC50
# Chain of hPK, M2 (P14618 whole entry): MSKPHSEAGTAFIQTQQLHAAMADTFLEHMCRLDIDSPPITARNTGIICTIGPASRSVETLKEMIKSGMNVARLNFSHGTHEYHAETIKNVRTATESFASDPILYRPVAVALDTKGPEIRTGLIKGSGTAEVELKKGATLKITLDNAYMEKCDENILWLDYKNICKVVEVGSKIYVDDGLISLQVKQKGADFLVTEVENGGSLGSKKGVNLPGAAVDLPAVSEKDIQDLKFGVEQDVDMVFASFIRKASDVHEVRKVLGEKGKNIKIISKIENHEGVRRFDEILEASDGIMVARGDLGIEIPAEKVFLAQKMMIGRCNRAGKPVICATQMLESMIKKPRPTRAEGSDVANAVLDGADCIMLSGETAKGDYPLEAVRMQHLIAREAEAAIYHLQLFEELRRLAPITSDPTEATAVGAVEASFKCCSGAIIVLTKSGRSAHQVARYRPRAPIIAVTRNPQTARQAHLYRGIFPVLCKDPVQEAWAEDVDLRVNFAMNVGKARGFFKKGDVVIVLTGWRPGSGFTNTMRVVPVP
SMILES,AC50 [5],Emax [3],other results
"Cc1ccc(NS(=O)(=O)c2cc3c(cc2Cl)NC(=O)CO3)cc1C [Compound 37, 6-chloro-N-(3,4-dimethylphenyl)-3-oxo-3,4-dihydro-2H-benzo[b][1,4]oxazine-7-sulfonamide]",–,–,AC50 [1]: 580 nM; activation at 57 µM [2]: 95%
"Cc1ccc(NS(=O)(=O)c2cc3c(cc2Br)NC(=O)CO3)cc1C [Compound 38, 6-bromo-N-(3,4-dimethylphenyl)-3-oxo-3,4-dihydro-2H-benzo[b][1,4]oxazine-7-sulfonamide]",–,–,AC50 [1]: 18000 nM; activation at 57 µM [2]: 103%
"Cc1ccc(NS(=O)(=O)c2cc3c(cc2C)NC(=O)CO3)cc1C [Compound 39, N-(3,4-dimethylphenyl)-6-methyl-3-oxo-3,4-dihydro-2H-benzo[b][1,4]oxazine-7-sulfonamide]",–,–,AC50 [1]: 1200 nM; activation at 57 µM [2]: 106%
"Cc1ccc(NS(=O)(=O)c2cc3c(cc2-c2ccccc2)NC(=O)CO3)cc1C [Compound 40, N-(3,4-dimethylphenyl)-3-oxo-6-phenyl-3,4-dihydro-2H-benzo[b][1,4]oxazine-7-sulfonamide]",–,–,AC50 [1]: 20600 nM; activation at 57 µM [2]: 36%
"Cc1ccc(N(C)S(=O)(=O)c2ccc3c(c2)CCC(=O)N3)cc1C [Compound 41, N-(3,4-dimethylphenyl)-N-methyl-2-oxo-1,2,3,4-tetrahydroquinoline-6-sulfonamide]",–,–,Max. Res. [3]: 36.00; AC50 [4]: 23100 nM; Emax (linkage variants of compound 4): 36%
"Cc1ccc(NC(=O)c2ccc3c(c2)CCC(=O)N3)cc1C [Compound 42, N-(3,4-dimethylphenyl)-2-oxo-1,2,3,4-tetrahydroquinoline-6-carboxamide]",–,–,Max. Res. [3]: 5; AC50 [4]: 40000 nM; Emax (linkage variants of compound 4): 5%
"Cc1ccc(NS(=O)(=O)c2ccc3c(c2)CCC(=O)N3)cc1Cl [Compound 43, N-(3-chloro-4-methylphenyl)-2-oxo-1,2,3,4-tetrahydroquinoline-6-sulfonamide]",260 nM,122%,–
"O=C1CCc2cc(S(=O)(=O)Nc3ccc(Cl)c(Cl)c3)ccc2N1 [Compound 44, N-(3,4-dichlorophenyl)-2-oxo-1,2,3,4-tetrahydroquinoline-6-sulfonamide]",2590 nM,126%,–
"Cc1ccc(Cl)cc1NS(=O)(=O)c1cc2c(cc1Cl)CCC(=O)N2 [Compound 45, 6-chloro-N-(5-chloro-2-methylphenyl)-2-oxo-1,2,3,4-tetrahydroquinoline-7-sulfonamide]",2910 nM,109%,–
"N#Cc1cccc(NS(=O)(=O)c2ccc3c(c2)CCC(=O)N3)c1 [Compound 46, N-(3-cyanophenyl)-2-oxo-1,2,3,4-tetrahydroquinoline-6-sulfonamide]",9190 nM,97%,–
"CC(=O)N1c2ccc(S(=O)(=O)Nc3ccc(C)c(C)c3)cc2CC1C (centres unmarked) [Compound 47, 1-acetyl-N-(3,4-dimethylphenyl)-2-methylindoline-5-sulfonamide]",18300 nM,112%,–
"Cc1ccc(Cl)cc1NS(=O)(=O)c1cc2c(cc1F)NC(=O)CC2 [Compound 48, N-(5-chloro-2-methylphenyl)-7-fluoro-2-oxo-1,2,3,4-tetrahydroquinoline-6-sulfonamide]",4610 nM,94.6%,–
"Cc1ccc(NS(=O)(=O)c2cc3c(cc2Cl)CCC(=O)N3)cc1Cl [Compound 49, 6-chloro-N-(3-chloro-4-methylphenyl)-2-oxo-1,2,3,4-tetrahydroquinoline-7-sulfonamide]",650 nM,112%,–
"Cc1c(Cl)cccc1NS(=O)(=O)c1cc2c(cc1F)NC(=O)CC2 [Compound 50, N-(3-chloro-2-methylphenyl)-7-fluoro-2-oxo-1,2,3,4-tetrahydroquinoline-6-sulfonamide]",2590 nM,118%,–
"Cc1ccc(NS(=O)(=O)c2cc3c(cc2F)NC(=O)CC3)cc1Cl [Compound 51, N-(3-chloro-4-methylphenyl)-7-fluoro-2-oxo-1,2,3,4-tetrahydroquinoline-6-sulfonamide]",120 nM,102%,–
"O=C1CCc2cc(S(=O)(=O)Nc3cccc(B(O)O)c3)ccc2N1 [Compound 52, 3-(2-oxo-1,2,3,4-tetrahydroquinoline-6-sulfonamido)phenylboronic acid]",820 nM,99.3%,–
"Cc1cc(NS(=O)(=O)c2ccc3c(c2)CCC(=O)N3)ccc1F [Compound 53, N-(4-fluoro-3-methylphenyl)-2-oxo-1,2,3,4-tetrahydroquinoline-6-sulfonamide]",370 nM,121%,–
"O=C1CCc2cc(S(=O)(=O)Nc3ccc(Cl)c(Cl)c3)c(F)cc2N1 [Compound 54, N-(3,4-dichlorophenyl)-7-fluoro-2-oxo-1,2,3,4-tetrahydroquinoline-6-sulfonamide]",3660 nM,109%,–
"Cc1ccc(NS(=O)(=O)c2ccc3c(c2)CCC(=O)N3)cc1F [Compound 55, N-(3-fluoro-4-methylphenyl)-2-oxo-1,2,3,4-tetrahydroquinoline-6-sulfonamide]",460 nM,131%,–
"Cc1cc(NS(=O)(=O)c2cc3c(cc2F)NC(=O)CC3)ccc1Cl [Compound 56, N-(4-chloro-3-methylphenyl)-7-fluoro-2-oxo-1,2,3,4-tetrahydroquinoline-6-sulfonamide]",820 nM,94.2%,–
"Cc1ccc(NS(=O)(=O)c2cc3c(cc2Cl)NC(=O)C3)cc1C [Compound 57, 6-chloro-N-(3,4-dimethylphenyl)-2-oxoindoline-5-sulfonamide]",920 nM,108%,–
"Cc1cc(NS(=O)(=O)c2ccc3c(c2)CCC(=O)N3)ccc1Cl [Compound 58, N-(4-chloro-3-methylphenyl)-2-oxo-1,2,3,4-tetrahydroquinoline-6-sulfonamide]",410 nM,96.5%,–
"Cc1c(Cl)cccc1NS(=O)(=O)c1cc2c(cc1Cl)CCC(=O)N2 [Compound 59, 6-chloro-N-(3-chloro-2-methylphenyl)-2-oxo-1,2,3,4-tetrahydroquinoline-7-sulfonamide]",1160 nM,109%,–
"Cc1ccc(NS(=O)(=O)c2ccc3c(c2)C(Cl)(Cl)C(=O)N3)cc1C [Compound 60, 3,3-dichloro-N-(3,4-dimethylphenyl)-2-oxoindoline-5-sulfonamide]",10300 nM,117%,–
"Cc1ccc(NS(=O)(=O)c2cc3c(cc2N(C)CCN(C)C)NC(=O)CC3)cc1C [Compound 61, 7-((2-(dimethylamino)ethyl)(methyl)amino)-N-(3,4-dimethylphenyl)-2-oxo-1,2,3,4-tetrahydroquinoline-6-sulfonamide]",5840 nM,70.5%,–
"Cc1ccc(NS(=O)(=O)c2cc3c(cc2N2CCCC2)NC(=O)CC3)cc1C [Compound 62, N-(3,4-dimethylphenyl)-2-oxo-7-(pyrrolidin-1-yl)-1,2,3,4-tetrahydroquinoline-6-sulfonamide]",460 nM,124%,–
"Cc1ccc(NS(=O)(=O)c2cc3c(cc2N2CCC(N(C)C)C2)NC(=O)CC3)cc1C (centres unmarked) [Compound 63, 7-(3-(dimethylamino)pyrrolidin-1-yl)-N-(3,4-dimethylphenyl)-2-oxo-1,2,3,4-tetrahydroquinoline-6-sulfonamide]",8190 nM,102%,–
"Cc1ccc(NS(=O)(=O)c2cc3c(cc2NCC(C)(C)O)NC(=O)CC3)cc1C [Compound 64, N-(3,4-dimethylphenyl)-7-(2-hydroxy-2-methylpropylamino)-2-oxo-1,2,3,4-tetrahydroquinoline-6-sulfonamide]",1830 nM,100%,–
"Cc1ccc(NS(=O)(=O)c2cc3c(cc2NC(C)C)NC(=O)CC3)cc1C [Compound 65, N-(3,4-dimethylphenyl)-7-(isopropylamino)-2-oxo-1,2,3,4-tetrahydroquinoline-6-sulfonamide]",320 nM,106%,–
"CCN(CC)c1cc2c(cc1S(=O)(=O)Nc1ccc(C)c(C)c1)CCC(=O)N2 [Compound 66, 7-(diethylamino)-N-(3,4-dimethylphenyl)-2-oxo-1,2,3,4-tetrahydroquinoline-6-sulfonamide]",7240 nM,111%,–
